From patent US4272437A, “Antibacterial agents, and 4-thio azetidinone intermediates” (priority 1979, dated 1981)
Values after ≈ are worked out from the molar mass of the structure shown. Where two headings read alike, the source gives them in different places.

Experiments:
Str. faecalis A-20688 = test: MIC, tube dilution, Streptococcus faecalis A20688; type: cell-based; conditions: overnight 37° C.; for MIC: Enterococcus faecalis, A20688, Str. faecalis A20688, read-out: Minimum Inhibitory Concentration (M.I.C.)
Source text: (§1) Representative compounds of the present invention were subjected to in vitro antibiotic screening against a variety of microorganisms.

E. coli A-20341-1 = test: MIC, tube dilution, Escherichia coli A20341-1; type: cell-based
Source text: as §1

Str. pneumoniae A-9585 = test: MIC, tube dilution, Streptococcus pneumoniae A9585; type: cell-based; conditions: overnight 37° C., Nutrient Broth; for MIC: Streptococcus pneumoniae, A9585, Str. pneumoniae A9585, read-out: Minimum Inhibitory Concentration (M.I.C.)
Source text: as §1

[1] = test system: Staph. aureus (Meth-Res) A-15097; test: MIC, tube dilution, Staphylococcus aureus A15097 (Meth-Res); type: cell-based; conditions: overnight 37° C.; for MIC: Staphylococcus aureus
Source text: as §1

Pr. vulgaris A-9716 = test: MIC, tube dilution, Proteus vulgaris / Proteus mirabilis A9716; type: cell-based, Proteus vulgaris (name changed to Proteus mirabilis); conditions: overnight 37° C.; for MIC: Proteus vulgaris, A9716, Proteus vulgaris / Proteus mirabilis A9716, read-out: Minimum Inhibitory Concentration (M.I.C.)
Source text: as §1

Str. pyogenes A-9604 = test: MIC, tube dilution, Streptococcus pyogenes A9604; type: cell-based; conditions: overnight 37° C., Nutrient Broth; for MIC: Streptococcus pyogenes, A9604, Str. pyogenes A9604, read-out: Minimum Inhibitory Concentration (M.I.C.)
Source text: as §1

Pr. mirabilis A-9900 = test: MIC, tube dilution, Proteus mirabilis A9900; type: cell-based; conditions: overnight 37° C.; for MIC: Proteus mirabilis, A9900, Proteus mirabilis A9900, read-out: Minimum Inhibitory Concentration (M.I.C.)
Source text: as §1

Ent. cloacae A-9656 = test: MIC, tube dilution, Enterobacter cloacae A9656; type: cell-based; conditions: overnight 37° C.; for MIC: Enterobacter cloacae, A9656, Enterobacter cloacae A9656, read-out: Minimum Inhibitory Concentration (M.I.C.)
Source text: as §1

K. pneumoniae A-15130 = test: MIC, tube dilution, Klebsiella pneumoniae A15130; type: cell-based; conditions: overnight 37° C.; for MIC: Klebsiella pneumoniae, A15130, K. pneumoniae A15130, read-out: Minimum Inhibitory Concentration (M.I.C.)
Source text: as §1

[2] = test system: Staph. aureus (Pen-Res) A-9606; test: MIC, tube dilution, Staphylococcus aureus A9606 (Pen-Res); type: cell-based; conditions: Staph. aureus A9606 (Pen-Res), overnight 37° C.; for MIC: Staphylococcus aureus, read-out: Minimum Inhibitory Concentration (M.I.C.)
Source text: as §1

[3] = test system: Providencia stuartii A21205; test: MIC, tube dilution, Providencia stuartii (Pr. rettgeri) A21205; type: cell-based; conditions: overnight 37° C.; for MIC: Providencia stuartii, A21205, Providencia stuartii (Pr. rettgeri) A21205, read-out: Minimum Inhibitory Concentration (M.I.C.)
Source text: as §1

Ps. aeruginosa A-21213 = test: MIC, tube dilution, Pseudomonas aeruginosa A21213; type: cell-based; conditions: overnight 37° C.; for MIC: read-out: Minimum Inhibitory Concentration (M.I.C.)
Source text: as §1

Pr. morganii A-15153 = test: MIC, tube dilution, Proteus morganii A15153; type: cell-based; conditions: overnight 37° C.; for MIC: Morganella morganii, A15153, Proteus morganii A15153, read-out: Minimum Inhibitory Concentration (M.I.C.)
Source text: as §1

Staph. aureus A-9537 = test: MIC, tube dilution, Staphylococcus aureus A9537; type: cell-based; conditions: overnight 37° C., Nutrient Broth; for MIC: Staphylococcus aureus, A9537, Staph. aureus A9537, read-out: Minimum Inhibitory Concentration (M.I.C.)
Source text: as §1

[4] = test system: Staph. aureus A-9537 and 50% serum; test: MIC, tube dilution, Staph. aureus A9537 + 50% serum; type: cell-based, Staphylococcus aureus; conditions: overnight 37° C.; for MIC: Staphylococcus aureus, read-out: Minimum Inhibitory Concentration (M.I.C.)
Source text: as §1

Ser. marcescens A-20019 = test: MIC, tube dilution, Serratia marcescens A20019; type: cell-based; conditions: overnight 37° C.; for MIC: Serratia marcescens, A20019, Serratia marcescens A20019, read-out: Minimum Inhibitory Concentration (M.I.C.)
Source text: as §1

Ps. aeruginosa A-9843A = test: MIC, tube dilution, Pseudomonas aeruginosa A9843A; type: cell-based; conditions: overnight 37° C.; for MIC: Pseudomonas aeruginosa, A9843A, read-out: Minimum Inhibitory Concentration (M.I.C.), Pseudomonas aeruginosa A9843A
Source text: as §1

Ent. cloacae A-9659 = test: MIC, tube dilution, Enterobacter cloacae A9659; type: cell-based; conditions: overnight 37° C.; for MIC: Enterobacter cloacae, A9659, Enterobacter cloacae A9659, read-out: Minimum Inhibitory Concentration (M.I.C.)
Source text: as §1

[5] = test system: Klebsiella species A20468; test: MIC, tube dilution, Klebsiella species A20468; type: cell-based; conditions: Klebsiella species (K. pneumoniae) A20468, overnight 37° C.; for MIC: read-out: Minimum Inhibitory Concentration (M.I.C.)
Source text: as §1

E. coli A-15119 = test: MIC, tube dilution, Escherichia coli A15119; type: cell-based; conditions: overnight 37° C.; for MIC: Escherichia coli, A15119, E. coli A15119, read-out: Minimum Inhibitory Concentration (M.I.C.)
Source text: as §1

Row | Compound | MIC (Str. faecalis A-20688) [µg/mL] | MIC (Str. pneumoniae A-9585) [µg/mL] | MIC (Pr. vulgaris A-9716) [µg/mL] | MIC (Str. pyogenes A-9604) [µg/mL] | MIC (Pr. mirabilis A-9900) [µg/mL] | MIC (Ent. cloacae A-9656) [µg/mL] | MIC (K. pneumoniae A-15130) [µg/mL] | MIC [2] [µg/mL] | MIC [3] [µg/mL] | MIC (Pr. morganii A-15153) [µg/mL] | MIC (Staph. aureus A-9537) [µg/mL] | MIC [4] [µg/mL] | MIC (Ser. marcescens A-20019) [µg/mL] | MIC (Ps. aeruginosa A-9843A) [µg/mL] | MIC (Ent. cloacae A-9659) [µg/mL] | MIC [5] [µg/mL] | MIC (E. coli A-15119) [µg/mL] | also measured
1 | 6-Acetoxymethyl-2-methylpenem-3-carboxylic Acid [Example 2] | – | – | – | – | – | – | – | – | – | – | – | – | – | – | – | – | – | Minimum Inhibitory Concentration (M.I.C.) (Str. faecalis A-20688; Str. faecalis A20688): 63 µg/mL; Minimum Inhibitory Concentration (M.I.C.) (E. coli A-20341-1; E. coli A20341-1; overnight 37° C.): 32 µg/mL; Minimum Inhibitory Concentration (M.I.C.) (Str. pneumoniae A-9585; Str. pneumoniae A9585): 1 µg/mL; Minimum Inhibitory Concentration (M.I.C.) ([1]; Staph. aureus A15097 (Meth-Res)): 8 µg/mL; Minimum Inhibitory Concentration (M.I.C.) (Pr. vulgaris A-9716; Proteus vulgaris / Proteus mirabilis A9716): 63 µg/mL; Minimum Inhibitory Concentration (M.I.C.) (Str. pyogenes A-9604; Str. pyogenes A9604): 2 µg/mL; Minimum Inhibitory Concentration (M.I.C.) (Pr. mirabilis A-9900; Proteus mirabilis A9900): 63 µg/mL; Minimum Inhibitory Concentration (M.I.C.) (Ent. cloacae A-9656; Enterobacter cloacae A9656): > 125 µg/mL; Minimum Inhibitory Concentration (M.I.C.) (K. pneumoniae A-15130; K. pneumoniae A15130): 63 µg/mL; Minimum Inhibitory Concentration (M.I.C.) [2]: 4 µg/mL; Minimum Inhibitory Concentration (M.I.C.) ([3]; Providencia stuartii (Pr. rettgeri) A21205): 32 µg/mL; Minimum Inhibitory Concentration (M.I.C.) (Ps. aeruginosa A-21213; Pseudomonas aeruginosa A21213): > 125 µg/mL; Minimum Inhibitory Concentration (M.I.C.) (Pr. morganii A-15153; Proteus morganii A15153): 63 µg/mL; Minimum Inhibitory Concentration (M.I.C.) (Staph. aureus A-9537; Staph. aureus A9537): 8 µg/mL; Minimum Inhibitory Concentration (M.I.C.) [4]: > 63 µg/mL; Minimum Inhibitory Concentration (M.I.C.) (Ser. marcescens A-20019; Serratia marcescens A20019): 125 µg/mL; Minimum Inhibitory Concentration (M.I.C.) (Ps. aeruginosa A-9843A; Pseudomonas aeruginosa A9843A): > 125 µg/mL; Minimum Inhibitory Concentration (M.I.C.) (Ent. cloacae A-9659; Enterobacter cloacae A9659): 125 µg/mL; Minimum Inhibitory Concentration (M.I.C.) [5]: > 125 µg/mL; Minimum Inhibitory Concentration (M.I.C.) (E. coli A-15119; E. coli A15119): 32 µg/mL
2 | O=C(O)C1=C(Cc2cccs2)SC2CC(=O)N12 (stereo not drawn) [Preparation 8, 2-(2'-Thienyl)methyl-penem-3-carboxylic Acid] | 32 (≈ 120 µM) | 0.016 (≈ 0.0599 µM) | 1 (≈ 3.74 µM) | 0.03 (≈ 0.112 µM) | 0.5 (≈ 1.87 µM) | 16 (≈ 59.9 µM) | 32 (≈ 120 µM) | 4 (≈ 15 µM) | 1 (≈ 3.74 µM) | 1 (≈ 3.74 µM) | < 0.008 | > 63 | 32 (≈ 120 µM) | > 125 | 16 (≈ 59.9 µM) | > 125 | 1 (≈ 3.74 µM) | MIC (E. coli A-20341-1; Escherichia coli, A203411; E. coli A20341-1; overnight 37° C.; read-out: Minimum Inhibitory Concentration (M.I.C.)): > 125 µg/mL; MIC ([1]; read-out: Minimum Inhibitory Concentration (M.I.C.), Staph. aureus A15097 (Meth-Res)): > 125 µg/mL; MIC (Ps. aeruginosa A-21213; Pseudomonas aeruginosa A21213): > 125 µg/mL
3 | O=C(O)C1=C(c2ccco2)SC2CC(=O)N12 (stereo not drawn) [Preparation 13, 2-(2'-Furyl)penem-3-carboxylic Acid] | 32 (≈ 135 µM) | 1 (≈ 4.22 µM) | 4 (≈ 16.9 µM) | 1 (≈ 4.22 µM) | 4 (≈ 16.9 µM) | 63 (≈ 266 µM) | 32 (≈ 135 µM) | 8 (≈ 33.7 µM) | 4 (≈ 16.9 µM) | 32 (≈ 135 µM) | 1 (≈ 4.22 µM) | > 32 | 16 (≈ 67.4 µM) | > 63 | 63 (≈ 266 µM) | > 63 | 8 (≈ 33.7 µM) | MIC (E. coli A-20341-1; Escherichia coli, A203411, E. coli A20341-1; overnight 37° C.; read-out: Minimum Inhibitory Concentration (M.I.C.)): > 63 µg/mL; MIC ([1]; Staph. aureus A15097 (Meth-Res), read-out: Minimum Inhibitory Concentration (M.I.C.)): 16 µg/mL (≈ 67.4 µM); MIC (Ps. aeruginosa A-21213; Pseudomonas aeruginosa, A21213, Pseudomonas aeruginosa A21213): > 63 µg/mL
